Measurements reported in the supplement of paper PMC5844555.

Key:
Experiment in all cases: 3' UTR reporter interaction score (median-centred robust z-score of log2 firefly/Renilla activity); higher = less repression of the 3' UTR reporter
Details in all cases: HEK293T; 48 h
ZEB2 = tested on: ZEB2
Procedure, shortened: (§1)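 The interaction score is based on the log-transformed firefly/Renilla luciferase ratio, scaled as a robust z-score within each plate by median and median absolute deviation and median-centred for each miRNA; more negative scores indicate interaction. It was averaged over at least two independent screens. Readings were taken 48 h after HEK293T cells (10,000/well, 96-well plates) were co-transfected by DharmaFECT Duo with 100 ng firefly luc2P 3' UTR reporter, 20 ng Renilla pRL-TK and 2.5 pmol miRNA mimic.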

HRAS = tested on: HRAS
Procedure, shortened: as §1

BRCA2 = tested on: BRCA2
Procedure, shortened: as §1

TP53 = tested on: TP53
Procedure, shortened: as §1

FBXW7 = tested on: FBXW7
Procedure, shortened: as §1

RB1 = tested on: RB1
Procedure, shortened: as §1

PHOX2B = tested on: PHOX2B
Procedure, shortened: as §1

MYC = tested on: MYC
Procedure, shortened: as §1

NOTCH1 = tested on: NOTCH1
Procedure, shortened: as §1

MYT1L = tested on: MYT1L
Procedure, shortened: as §1

MYB = tested on: MYB
Procedure, shortened: as §1

MYCN = tested on: MYCN
Procedure, shortened: as §1

EZH2 = tested on: EZH2
Procedure, shortened: as §1

PHF6 = tested on: PHF6
Procedure, shortened: as §1

Sequence | 3' UTR reporter interaction score (ZEB2) | 3' UTR reporter interaction score (HRAS) | 3' UTR reporter interaction score (BRCA2) | 3' UTR reporter interaction score (TP53) | 3' UTR reporter interaction score (FBXW7) | 3' UTR reporter interaction score (RB1) | 3' UTR reporter interaction score (PHOX2B) | 3' UTR reporter interaction score (MYC) | 3' UTR reporter interaction score (NOTCH1) | 3' UTR reporter interaction score (MYT1L) | 3' UTR reporter interaction score (MYB) | 3' UTR reporter interaction score (MYCN) | 3' UTR reporter interaction score (EZH2) | 3' UTR reporter interaction score (PHF6)
ACUGCAGUGAAGGCACUUGU | -0.791 | 0.389 | 0.0527 | -0.642 | -0.112 | -0.0483 | -0.6 | 0.291 | 0.45 | -0.459 | 0.157 | 0.762 | -0.638 | -0.789
UGAGCUGCUGUACCAAAAU | 0.288 | -0.0544 | -0.363 | -0.00622 | 0.267 | 0.104 | 1.09 | -0.354 | 0.526 | 0.273 | -0.26 | -1.43 | -0.391 | 0.476
ACCAUCGACCGUUGAUUGUACC | 0.294 | -0.526 | 0.723 | 0.659 | -0.0205 | -0.388 | 0.0128 | -0.128 | -0.491 | -2.64 | 0.0907 | 0.598 | 0.789 | 1.81
UGUCACUCGGCUCGGCCCACUAC | -1.79 | -0.561 | 1.08 | 0.457 | 0.218 | -0.766 | -0.663 | -0.146 | 0.551 | 0.664 | 0.0813 | 0.184 | 0.621 | -0.284
AGGUUGACAUACGUUUCCC | 1.11 | -1.43 | -0.754 | -0.178 | -0.16 | 0.54 | 0.494 | -0.726 | 1.09 | 0.798 | 0.862 | -0.377 | -0.54 | 0.251
ACUCAAAACCCUUCAGUGACUU | 0.456 | -0.68 | 0.794 | 1.13 | 0.994 | -0.026 | -0.184 | -0.294 | 0.701 | -0.111 | -1.17 | -0.913 | 0.495 | 1.5
GAGGUUGUCCGUGGUGAGUUCG | 0.323 | -0.768 | -0.325 | -0.45 | -1.94 | -0.327 | 0.511 | -2.33 | 0.138 | 0.00527 | 0.0834 | -0.211 | -0.239 | -0.125
UAGCAGCGGGAACAGUUCUGCAG | 0.481 | -0.261 | 0.681 | 1.12 | -2.86 | 0.756 | -0.446 | 0.339 | 9.71e-17 | -3.34 | -2.27 | 0.142 | -0.757 | 0.822
AGAUCGACCGUGUUAUAUUCGC | -1.03 | 0.57 | 0.451 | -2.1 | -0.751 | 0.976 | -0.0818 | 0.022 | 0.965 | -1.38 | -1.19 | 0.592 | 0.0389 | 0.689
UGUGCAAAUCUAUGCAAAACUGA | -1.34 | -1.18 | -0.799 | 0.088 | 0.679 | 0.548 | 0.393 | -0.0223 | -0.179 | 0.342 | -0.797 | -2.74 | -0.0175 | 0.299
CAAAGUGCCUCCCUUUAGAGUGU | -0.0865 | 0.317 | 0.407 | 0.418 | 0.81 | -0.937 | 0.0452 | -0.351 | 0.00359 | -0.343 | 0.155 | 0.839 | -0.27 | 0.15
CCACUGCCCCAGGUGCUGCUGG | -1.03 | -0.594 | -0.289 | -1.28 | -0.902 | 0.0205 | 0.479 | 0.494 | -1.62 | 1.35 | 0 | 0.562 | -0.183 | 0.422
GGGCGCCUGUGAUCCCAAC | -0.0882 | -0.201 | -0.242 | 0.186 | 0.114 | -0.433 | 0.588 | -0.484 | -0.381 | 0.181 | 0.137 | -0.708 | 0.0894 | -0.831
AACCCGUAGAUCCGAACUUGUG | -1.13 | 0.79 | 0.951 | 1.86 | -0.349 | 0.915 | -4.05 | 0.114 | -0.555 | -0.266 | 0.491 | -0.886 | 0.142 | -0.96
AGGGGGAAAGUUCUAUAGUCCU | 2.84 | 0.225 | -1.55 | -0.601 | 0.691 | 0.755 | 1.33 | -1.56 | -1.57 | -0.154 | 1.55 | 0.426 | -1.49 | 1.82
AAAGUGCUGCGACAUUUGAGCGU | -0.121 | 0.79 | 0.603 | -1.1 | 0.296 | 1.06 | 0.221 | 0.745 | 1.03 | -0.68 | -1.18 | 0.612 | -1.36 | 1.58
UUCACAGGGAGGUGUCAUUUAU | -0.846 | 0.0679 | -0.226 | 0.0668 | -3.1 | 0.105 | -0.65 | 0.377 | 0.269 | 0.885 | -0.536 | 1.06 | 1.32 | -1.72
CUUUCAGUCGGAUGUUUGCAGC | 0.565 | 0.271 | -0.362 | -0.309 | -0.137 | -0.473 | 0.68 | 0.164 | 0.454 | 0.0662 | 0.557 | -0.166 | -0.356 | -0.502
UCAGUGCAUGACAGAACUUGGG | 1.1 | -1.05 | -0.0322 | -0.341 | 0.501 | -2.16 | -1.31 | 0.213 | 0.274 | 0.827 | -1.5 | 0.0157 | 0.0466 | 1.76
